The values that follow come from paper PMC11671411 (Oncology Research, 2024).

The target in this experiment is T1, PI3KCD (Homo sapiens, UniProt O00329).
T1 construct: gene PIK3CD
The experiment is described as follows: PI 3-Kinase (human) HTRF enzyme assay with the PI3KCD isoform. The format is biochemical.

The structures appear in SMILES notation.

T1 sequence (O00329 whole entry): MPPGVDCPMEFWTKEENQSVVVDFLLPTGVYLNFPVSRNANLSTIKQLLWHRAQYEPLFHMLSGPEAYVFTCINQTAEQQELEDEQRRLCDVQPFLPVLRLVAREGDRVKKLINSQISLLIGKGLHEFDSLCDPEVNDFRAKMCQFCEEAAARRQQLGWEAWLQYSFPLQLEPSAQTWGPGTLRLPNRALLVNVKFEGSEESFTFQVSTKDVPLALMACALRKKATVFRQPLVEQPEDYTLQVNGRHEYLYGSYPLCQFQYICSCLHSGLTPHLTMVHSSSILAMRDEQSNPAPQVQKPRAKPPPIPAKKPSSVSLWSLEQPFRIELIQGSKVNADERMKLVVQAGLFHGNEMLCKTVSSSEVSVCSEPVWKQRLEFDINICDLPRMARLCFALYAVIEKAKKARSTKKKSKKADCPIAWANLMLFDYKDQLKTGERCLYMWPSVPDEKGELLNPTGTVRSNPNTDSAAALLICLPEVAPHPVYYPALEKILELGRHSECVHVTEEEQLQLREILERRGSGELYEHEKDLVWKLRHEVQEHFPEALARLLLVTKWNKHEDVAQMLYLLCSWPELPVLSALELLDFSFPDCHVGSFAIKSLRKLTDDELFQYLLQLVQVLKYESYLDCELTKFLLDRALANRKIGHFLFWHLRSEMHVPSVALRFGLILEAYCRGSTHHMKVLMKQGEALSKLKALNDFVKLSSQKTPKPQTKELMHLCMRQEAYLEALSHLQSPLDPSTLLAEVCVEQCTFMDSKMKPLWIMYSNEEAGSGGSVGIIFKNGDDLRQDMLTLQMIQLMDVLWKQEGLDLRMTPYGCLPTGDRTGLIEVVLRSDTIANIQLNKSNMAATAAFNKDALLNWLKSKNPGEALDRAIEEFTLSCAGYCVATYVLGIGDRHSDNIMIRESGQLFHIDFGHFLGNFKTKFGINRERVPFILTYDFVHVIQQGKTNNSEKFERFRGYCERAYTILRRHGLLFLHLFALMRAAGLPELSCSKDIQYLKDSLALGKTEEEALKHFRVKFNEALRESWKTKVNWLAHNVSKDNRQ

As for `c1ccc2c(c1)c1ccccc1c1nc3c4ccccc4c4ccccc4c3nc21` [SBL-JP-0004, tetrabenzo[a,c,h,j]phenazine], inhibition was half-maximal at 0.201 µM (IC50).
